Here are results for one compound from patent US12097202B2 (Kadmon Corporation, LLC, priority 2022, dated 2024).

Counter-ions that a name gives are not always drawn.

The series is described as follows: Solubility of belumosudil mesylate. The format is physicochemical.

Consider `CC(C)NC(=O)COc1cccc(-c2nc(Nc3ccc4[nH]ncc4c3)c3ccccc3n2)c1` [Belumosudil mesylate, 2-{3-[4-(1H-indazol-5-ylamino)-2-quinazolinyl]phenoxy}-N-(propan-2-yl) acetamide methanesulfonate (1:1)], for which the “solubility in DMSO” value (DMSO) is “soluble”. Further, the “solubility in methanol and DMF” value (methanol and DMF) is on record as “slightly soluble”. Further, the solubility in water result (water) is “practically insoluble”.
